# Reference: patent publication US20250188090A1, “A METHOD FOR EXTRACTION OF ALKALOID” (priority 2022, published 2025)
# Format: physicochemical
# Details: pH 9
compound,measurement,value
COC1=CC=C2[C@H]3Cc4ccc(O)c5c4[C@@]2(CCN3C)[C@H]1O5 [oripavine],% in the solvent after a 1-stage extraction (corresponding to D),93.3%
same,maximum D value,14.5
same,single stage extraction efficiency for oripavine,96%
